The target of experiment [1] is T1, Transcription factor Jun (Homo sapiens, UniProt P05412). The experiment is described as follows: Inhibition of AP-1-mediated transcriptional activation in human HeLa cells at 1 ug/ml. It counts as cell-based.
Experiment [2] addresses T1, Transcription factor Jun. The experiment is described as follows: Inhibition of AP-1-mediated transcriptional activation in human HeLa cells at 10 ug/ml. Format: cell-based.
For experiment [3], the target named is Transcription factor Jun (Mus musculus) (UniProt P05627). The experiment is described as follows: Inhibition of AP-1-mediated transcriptional activation in lipopolysaccharide-stimulated mouse RAW 264.7 cells assessed ratio of luciferase activity normalized to Renilla luciferase activity by luciferase reporter gene assay. A general note: Reporter assays use an easily measured gene product as a stand-in for the process of interest.

The target in experiment [4] is T1, Transcription factor Jun. Description: Inhibition of AP-1-mediated transcriptional activation in human Jurkat cells by luciferase reporter gene assay. It counts as cell-based.
The target in experiment [5] is Nuclear factor NF-kappa-B complex (Homo sapiens, UniProt Q00653+P19838+Q04206). The experiment is described as follows: Inhibition of NF-kappaB-mediated transcriptional activation in human Jurkat cells by luciferase reporter gene assay. It counts as cell-based.
In experiment [6] the target is T1, Transcription factor Jun. The experiment is described as follows: Inhibition of AP-1-mediated transcriptional activation in HEK293 cells by luciferase reporter gene assay. It counts as cell-based.
Another experiment addresses Transcription factor AP1 (Homo sapiens, UniProt P01100+P05412). Description: Inhibition of Fos-Jun dimer formation (unknown origin) by EMSA method. It counts as protein-complex assay.

SMILES strings stand for the structures.

Nuclear factor NF-kappa-B complex, sequence (P19838 1-433 limits assumed): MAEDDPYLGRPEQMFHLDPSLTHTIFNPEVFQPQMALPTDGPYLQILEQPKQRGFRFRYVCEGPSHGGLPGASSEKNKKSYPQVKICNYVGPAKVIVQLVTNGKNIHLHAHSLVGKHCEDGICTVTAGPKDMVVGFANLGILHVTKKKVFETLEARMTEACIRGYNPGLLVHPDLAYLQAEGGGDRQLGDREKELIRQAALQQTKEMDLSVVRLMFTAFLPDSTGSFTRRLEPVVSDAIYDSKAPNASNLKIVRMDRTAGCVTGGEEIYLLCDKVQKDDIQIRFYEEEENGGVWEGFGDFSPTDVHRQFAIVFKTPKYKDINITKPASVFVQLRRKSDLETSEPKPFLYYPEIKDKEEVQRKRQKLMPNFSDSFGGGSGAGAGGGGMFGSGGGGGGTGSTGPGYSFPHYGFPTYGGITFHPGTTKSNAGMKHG
Nuclear factor NF-kappa-B complex, sequence (Q00653 1-454 limits assumed): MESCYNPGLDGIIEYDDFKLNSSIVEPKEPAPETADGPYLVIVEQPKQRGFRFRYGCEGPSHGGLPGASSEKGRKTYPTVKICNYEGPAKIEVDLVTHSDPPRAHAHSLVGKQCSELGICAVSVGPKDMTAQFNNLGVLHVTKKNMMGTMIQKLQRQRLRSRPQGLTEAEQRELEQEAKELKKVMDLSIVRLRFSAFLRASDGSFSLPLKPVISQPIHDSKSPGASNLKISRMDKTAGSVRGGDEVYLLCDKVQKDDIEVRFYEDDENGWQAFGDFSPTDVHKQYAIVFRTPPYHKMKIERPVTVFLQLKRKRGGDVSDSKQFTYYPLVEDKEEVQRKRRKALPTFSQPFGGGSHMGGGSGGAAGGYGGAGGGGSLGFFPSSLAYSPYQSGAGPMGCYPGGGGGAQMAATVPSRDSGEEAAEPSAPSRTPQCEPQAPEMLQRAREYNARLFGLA
Nuclear factor NF-kappa-B complex, sequence (Q04206 whole entry): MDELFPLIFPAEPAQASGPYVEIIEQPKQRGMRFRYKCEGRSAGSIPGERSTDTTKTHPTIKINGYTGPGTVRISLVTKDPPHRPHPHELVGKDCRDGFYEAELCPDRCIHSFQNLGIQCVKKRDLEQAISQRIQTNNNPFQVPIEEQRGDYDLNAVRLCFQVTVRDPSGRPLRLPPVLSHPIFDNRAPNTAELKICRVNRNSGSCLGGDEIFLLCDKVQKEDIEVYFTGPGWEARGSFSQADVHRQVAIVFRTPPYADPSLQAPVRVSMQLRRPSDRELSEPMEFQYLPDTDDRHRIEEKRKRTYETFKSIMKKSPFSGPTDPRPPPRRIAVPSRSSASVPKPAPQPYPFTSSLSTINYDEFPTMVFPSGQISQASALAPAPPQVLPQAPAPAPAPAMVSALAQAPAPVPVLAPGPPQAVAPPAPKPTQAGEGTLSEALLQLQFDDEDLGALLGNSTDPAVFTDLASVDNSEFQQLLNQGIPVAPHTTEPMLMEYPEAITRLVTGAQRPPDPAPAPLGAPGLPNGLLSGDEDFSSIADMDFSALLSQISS
Transcription factor AP1, sequence (P05412 whole entry): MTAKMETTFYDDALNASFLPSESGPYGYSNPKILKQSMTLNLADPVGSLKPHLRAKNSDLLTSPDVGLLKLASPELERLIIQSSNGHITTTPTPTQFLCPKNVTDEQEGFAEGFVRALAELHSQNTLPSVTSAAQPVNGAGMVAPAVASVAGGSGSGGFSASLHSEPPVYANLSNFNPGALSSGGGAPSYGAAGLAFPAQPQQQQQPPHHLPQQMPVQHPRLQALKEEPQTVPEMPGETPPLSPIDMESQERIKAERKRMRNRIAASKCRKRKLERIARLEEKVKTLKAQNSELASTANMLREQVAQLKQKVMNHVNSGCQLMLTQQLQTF
Transcription factor AP1, sequence (P01100 whole entry): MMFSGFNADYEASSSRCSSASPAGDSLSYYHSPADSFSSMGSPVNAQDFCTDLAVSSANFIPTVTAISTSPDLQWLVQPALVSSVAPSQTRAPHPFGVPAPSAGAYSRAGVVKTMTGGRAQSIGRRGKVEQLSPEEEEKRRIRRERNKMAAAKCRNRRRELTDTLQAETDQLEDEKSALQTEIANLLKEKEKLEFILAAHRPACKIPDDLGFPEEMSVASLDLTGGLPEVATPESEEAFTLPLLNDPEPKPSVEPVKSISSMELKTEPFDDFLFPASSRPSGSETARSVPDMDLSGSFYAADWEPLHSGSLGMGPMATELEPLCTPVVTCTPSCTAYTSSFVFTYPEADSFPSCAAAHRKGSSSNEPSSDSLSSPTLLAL
T1 sequence (P05412 whole entry): as the sequence (P05412 whole entry) above
Transcription factor Jun (Mus musculus), sequence (P05627 whole entry): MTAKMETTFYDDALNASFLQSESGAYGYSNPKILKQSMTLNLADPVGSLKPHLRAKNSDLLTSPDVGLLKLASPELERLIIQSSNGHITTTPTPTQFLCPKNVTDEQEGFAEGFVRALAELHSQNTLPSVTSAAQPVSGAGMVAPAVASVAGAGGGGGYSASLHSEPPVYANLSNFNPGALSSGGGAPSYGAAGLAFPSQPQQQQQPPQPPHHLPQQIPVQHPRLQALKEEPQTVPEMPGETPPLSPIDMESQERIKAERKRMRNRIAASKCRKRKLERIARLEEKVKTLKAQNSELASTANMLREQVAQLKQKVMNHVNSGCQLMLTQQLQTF

`O=C(Nc1cc(C(F)(F)F)cc(C(F)(F)F)c1)c1cc(Cl)ccc1O`: the inhibition against Transcription factor Jun [1] amounted to 42.4%; on Transcription factor Jun [2], 89.1%.

For `O=C(Nc1cc(Cl)cc(Cl)c1)c1cc(Cl)ccc1O`, the inhibition was found to be 22.7% at Transcription factor Jun [1] and 74.8% against Transcription factor Jun [2].

`C[C@@]12CCC[C@@](C)(C(=O)O)[C@H]1CC[C@@]13CC(=O)O[C@@](CO)(CC[C@H]12)C3`: the Ratio in experiment [3] is 2.58.

With `CC1=C[C@@]2(CC#N)CC[C@H]3[C@@](C)(CCC[C@@]3(C)C(=O)O)[C@@H]2CC1`, in experiment [3], the Ratio was found to be 2.85.

`Cc1cc(C(=O)Nc2ccc(C(F)(F)F)cc2C(F)(F)F)nc(Cl)n1`: on Transcription factor Jun [4], the IC50 was more than 10000 nM.

In turn, `O=C1Nc2cc(C(F)(F)F)ccc2Nc2nc(Cl)ncc21` yielded an IC50 against Transcription factor Jun [4] of 10000 nM.

Consider `O=C(Nc1cc(C(F)(F)F)cc(C(F)(F)F)c1)c1cnc(Cl)nc1C(F)(F)F`, for which the IC50 (in experiment [5]; against Transcription factor Jun [4]) was 50 nM in each case.

For `C[C@@]12CC[C@@H]3[C@@](CC[C@H]4[C@@]3(C)CCC[C@@]4(C)C(=O)O)(C/C1=N\O)C2`, the Ratio in experiment [3] came to 4.87.

`O=C(Nc1cc(C(F)(F)F)cc(C(F)(F)F)c1)c1cc(I)ccc1O`: the inhibition is 25.4% against Transcription factor Jun [1] and 82.4% on Transcription factor Jun [2].

For the compound `CCOC(=O)c1cnc(C(F)(F)F)nc1NN1C(=O)C=C(C)C1=O`, the IC50 (in experiment [5]; against Transcription factor Jun [4]) was 1000 nM in each case.

Regarding `O=C(Nc1cc(C(F)(F)F)cc(C(F)(F)F)c1)c1cnc(F)nc1C(F)(F)F`, the IC50 in experiment [5] came out at 400 nM.

Take `C[C@@]12CCC[C@@](C)(C(=O)O)[C@H]1CC[C@]13CC(=O)O[C@](C)(C1)[C@H](O)C[C@H]32`: the Ratio in experiment [3] was determined as 2.73.

`CC(=O)c1ccc(-n2c(-c3cc(-c4ccncc4)c(N4CCOCC4)s3)nc3ccccc3c2=O)cc1`: the IC50 against Transcription factor Jun [6] turned out to be 5000 nM.

Compound `Cc1ccccc1-n1c(-c2sc(Nc3ccccc3)nc2C)nc2ccccc2c1=O` yielded a concentration for half-maximal inhibition (IC50) at Transcription factor Jun [6] of 5500 nM.

In the case of `O=C(Nc1cc(C(F)(F)F)cc(C(F)(F)F)c1)c1cnc(Cl)nc1-c1ccccc1`, the IC50 (in experiment [5]; against Transcription factor Jun [4]) was 400 nM in each case.

In the case of `O=C(Nc1cc(C(F)(F)F)cc(C(F)(F)F)c1)c1cnc(Cl)cn1`, the IC50 (in experiment [5]; against Transcription factor Jun [4]) was 4000 nM throughout.

With `O=C(Nc1ccc(C(F)(F)F)cc1C(F)(F)F)c1cc(C(F)(F)F)nc(Cl)n1`, the IC50 against Transcription factor Jun [4] was more than 10000 nM.

`C[C@@]12CC[C@@H]3[C@@](CC[C@H]4[C@@]3(C)CCC[C@@]4(C)C(=O)O)(COC1=O)C2`: in experiment [3], the Ratio amounted to 1.88.

Consider `C[C@H]1[C@H](C)CC[C@]2(COC(=O)c3ccccc3C(=O)O)CC[C@]3(C)C(=CC[C@@H]4[C@@]5(C)CC[C@H](OC(=O)c6ccccc6C(=O)O)C(C)(C)[C@@H]5CC[C@]43C)[C@H]12`, for which inhibition against Transcription factor AP1 was half-maximal at 4000 nM (IC50).

Regarding `Cc1nc(Cl)ncc1C(=O)Nc1cc(Cl)cc(Cl)c1`, the IC50 against Transcription factor Jun [4] worked out at 500 nM.

With `O=C(Nc1cc(Cl)cc(Cl)c1)c1cc(I)ccc1O`, at Transcription factor Jun [2], the inhibition stood at 75.4%.

At Transcription factor Jun [4], `CC1=CC(=O)N(Nc2ncc(-c3coc(C)n3)c(-c3cccs3)n2)C1=O` gave an IC50 of 760 nM.

For `C[C@@]12CC[C@@H]3[C@@](CC1=O)(C2)[C@@H](O)C[C@H]1[C@@]3(C)[C@@H](O)CC[C@@]1(C)C(=O)O`, in experiment [3], the Ratio was 2.98.

On Transcription factor Jun [4], `CCOC(=O)c1cnc(NN2C(=O)C=C(C)C2=O)nc1C(F)(F)F` had an IC50 of 2000 nM.

In the case of `O=C(Nc1cc(Cl)cc(Cl)c1)c1cc(Br)ccc1O`, the figures for the inhibition at Transcription factor Jun [1] and at Transcription factor Jun [2] were 39.3% and 83.8%, respectively.

Take `O=C(Nc1cc(C(F)(F)F)cc(C(F)(F)F)c1)c1ccc(Cl)nn1`: the IC50 (in experiment [5]; on Transcription factor Jun [4]) was 1700 nM throughout.

As to `O=C(Nc1cc(C(F)(F)F)cc(C(F)(F)F)c1)c1nnc(Cl)cc1C(F)(F)F`, the concentration for half-maximal inhibition (IC50) (in experiment [5]; on Transcription factor Jun [4]) was 10000 nM throughout.

The compound `CNc1nc(C)c(-c2nc3ccccc3c(=O)n2-c2ccccc2C)s1` came in with an IC50 against Transcription factor Jun [6] of 5500 nM.

`CCOC(=O)c1cnc(N(C)N2C(=O)C=C(C)C2=O)nc1C(F)(F)F` returned an IC50 against Transcription factor Jun [4] of 300 nM.

As to `C[C@@]12CC[C@@H]3[C@@](C/C1=N\O)(C2)[C@H](O)C[C@H]1[C@@]3(C)[C@@H](O)CC[C@@]1(C)C(=O)O`, the Ratio in experiment [3] was found to be 2.69.

With `O=C(c1cnc(Cl)nc1C(F)(F)F)N1COCc2ccc(C(F)(F)F)cc21`, the midpoint of inhibition at Transcription factor Jun [4], the IC50, lay at 10000 nM.

`COc1ccc2nc(-c3cccs3)nc(NN3C(=O)C=C(C)C3=O)c2c1` gave an IC50 against Transcription factor Jun [4] of 3 nM.

Compound `Cc1ccc(/C=C/C(=O)/C=C(O)/C=C/c2ccc(C)cc2)cc1` yielded an IC50 against Transcription factor AP1 of 8980 nM.

With `C[C@@]12CC[C@H]3[C@]4(C)CCC[C@@](C)(C(=O)O)[C@H]4C[C@H](O)[C@]3(CC1=O)C2`, the Ratio in experiment [3] stood at 2.69.

In the case of `C[C@@]12CC[C@@H]3[C@@](CC[C@H]4[C@@]3(C)CCC[C@@]4(C)C(=O)O)(CC(=O)O1)C2`, the Ratio in experiment [3] is 2.38.

Turning to `CC1=CC[C@@H]2[C@](CC#N)(CC[C@H]3[C@@]2(C)CCC[C@@]3(C)C(=O)O)C1`, the Ratio in experiment [3] was found to be 2.22.

In turn, `CCOC(=O)c1cnc(N(C)N2C(=O)C=C(C)C2=O)nc1CC` had an IC50 on Transcription factor Jun [4] of 35 nM.

Regarding `CCOC(=O)c1cnc(-c2cccs2)nc1NN1C(=O)C=C(C)C1=O`, the IC50 (in experiment [5]; on Transcription factor Jun [4]) was 20 nM throughout.

`Cc1nc(Cl)ncc1C(=O)Nc1cc(C(F)(F)F)cc(C(F)(F)F)c1` registered an IC50 in experiment [5] of 50 nM.

Regarding `CC(=O)c1cnc(NN2C(=O)C=C(C)C2=O)nc1C(F)(F)F`, at Transcription factor Jun [4], it took 4400 nM to reach half-maximal inhibition (IC50).

On to `CCc1nc(NN2C(=O)C=C(C)C2=O)ncc1-c1coc(C)n1`, for which, at Transcription factor Jun [4], the IC50 is 830 nM.

As for `CC1=CC(=O)N(Nc2ncc(C(=O)c3ccccc3)c(C(F)(F)F)n2)C1=O`, the IC50 against Transcription factor Jun [4] worked out at 98 nM.

Take `C[C@@H]1C[C@H]2[C@@H]3CCC4=CC(=O)C=C[C@]4(C)[C@@]3(F)[C@@H](O)C[C@]2(C)[C@@]1(O)C(=O)CO`: the Ratio in experiment [3] came out at 2.33.

As for `C[C@@]12CC[C@@H]3[C@@](CC[C@H]4[C@@]3(C)[C@@H](O)CC[C@@]4(C)C(=O)O)(COC1=O)C2`, in experiment [3], the Ratio is 2.66.

On Transcription factor Jun [4], `CCOC(=O)c1cnc(NN2C(=O)C=C(C)C2=O)nc1-c1ccc(C)s1` registered an IC50 of 45 nM.

Compound `CC1(C)CC[C@]2(C(=O)O)CC[C@]3(C)C(=CC[C@@H]4[C@@]5(C)CC[C@H](O[C@@H]6O[C@H](C(=O)O)[C@@H](O)[C@H](O[C@@H]7OC[C@H](O)[C@H](O)[C@H]7O)[C@H]6O)C(C)(C)[C@@H]5CC[C@]43C)[C@@H]2C1` had an IC50 against Transcription factor AP1 of 130000 nM.

`Cc1nc(Nc2ccc(Cl)cc2)sc1-c1nc2ccccc2c(=O)n1-c1ccc(Cl)cc1` showed an IC50 on Transcription factor Jun [6] of 1200 nM.

Consider `CCOC(=O)c1cnc(NN2C(=O)C=C(C)C2=O)nc1CC`, for which, at Transcription factor Jun [4], the IC50 is 400 nM.

For `C[C@@]12CC[C@H]3[C@]4(C)CCC[C@@](C)(C(=O)O)[C@H]4C[C@H](O)[C@]3(CC(=O)O1)C2`, the Ratio in experiment [3] stood at 2.39.

As for `CCOC(=O)c1cnc(-c2ccccc2)nc1NN1C(=O)C=C(C)C1=O`, the IC50 (in experiment [5]; at Transcription factor Jun [4]) was 100 nM in each case.

With `O=C(Nc1cc(C(F)(F)F)cc(C(F)(F)F)c1)c1cc(Br)ccc1O`, the inhibition was 48.4% against Transcription factor Jun [1] and 91.2% at Transcription factor Jun [2].

`COc1cccc(/C=C/C(=O)/C=C(O)/C=C/c2cccc(OC)c2)c1`: inhibition at Transcription factor AP1 was half-maximal at 5400 nM (IC50).

In turn, `O=C(Nc1cc(C(F)(F)F)cc(C(F)(F)F)c1)c1cnc(Cl)nc1Cl` came in with an IC50 in experiment [5] of 600 nM.

`CNc1nc(C)c(-c2nc3ccccc3c(=O)n2-c2ccc(Cl)cc2)s1`: on Transcription factor Jun [6], the IC50 was 1200 nM.

On Transcription factor Jun [4], `CC1=CC(=O)N(Nc2ncc(C(=O)OC(C)(C)C)c(C(F)(F)F)n2)C1=O` showed a 50% inhibitory concentration (IC50) of 210 nM.

For orientation: inhibition means how much of the control response was suppressed. Lower therefore signals a weak effect. One may read the IC50 as the point on the concentration scale where inhibition reaches its midpoint. Low readings indicate greater potency, high ones weaker potency.

The values above are taken from ChEMBL document CHEMBL3352097, “Small molecule inhibitors targeting activator protein 1 (AP-1)” (J Med Chem, 2014).
